{"source": "patent US20080145432A1", "about": "“Fine Particle and Pharmaceutical Preparation” (priority 2005, published 2008)", "tested_on": "BALB/c mice", "assay": "Drug effect durability: serum glucose concentration after hypodermic injection", "format": "in vivo", "conditions": "10 hours after administration under the dorsal skin, 15 μg insulin, fasted mice", "method": "A particulate preparation enclosing 15 μg (WAKO) of insulin prepared in a method of example 9 was dispersed in 100 μL of normal saline (Otsuka), and was administered to 7-week-old male BALB/c mice (weighing 19 to 24 g) after fasting for 12 hours, under the dorsal skin by using 29 G injection needle (Terumo) (in the control group, 100 μL of normal saline (Otsuka) dissolving 15 μg of insulin was used). After administration, animals were kept fasted in individual cages, and blood samples collected from the caudal artery before and after administration were tested by biochemical automatic analyzer (Fuji Drychem 3500V of Fuji Film), by using measuring slide (GLU-WIII of Fuji Film), and changes of glucose concentration were measured at time intervals, and the average of serum glucose concentration changes of two animals each was calculated."}
{"substance": "insulin", "values": [{"measurement": "serum glucose concentration relative to level before administration", "result": 80, "unit": "%"}]}
